Broadly, the IC50 is the concentration that inhibits the measured activity by half. Read a low IC50 as greater potency.

In patent US10173991B2, “Sulfone amide linked benzothiazole inhibitors of endothelial lipase” (BRISTOL-MYERS SQUIBB COMPANY, priority 2014, dated 2019) one finds IC50 data, which are given here for 20 molecules.

Sequence of Endothelial lipase (EL) (Q9Y5X9 21-500): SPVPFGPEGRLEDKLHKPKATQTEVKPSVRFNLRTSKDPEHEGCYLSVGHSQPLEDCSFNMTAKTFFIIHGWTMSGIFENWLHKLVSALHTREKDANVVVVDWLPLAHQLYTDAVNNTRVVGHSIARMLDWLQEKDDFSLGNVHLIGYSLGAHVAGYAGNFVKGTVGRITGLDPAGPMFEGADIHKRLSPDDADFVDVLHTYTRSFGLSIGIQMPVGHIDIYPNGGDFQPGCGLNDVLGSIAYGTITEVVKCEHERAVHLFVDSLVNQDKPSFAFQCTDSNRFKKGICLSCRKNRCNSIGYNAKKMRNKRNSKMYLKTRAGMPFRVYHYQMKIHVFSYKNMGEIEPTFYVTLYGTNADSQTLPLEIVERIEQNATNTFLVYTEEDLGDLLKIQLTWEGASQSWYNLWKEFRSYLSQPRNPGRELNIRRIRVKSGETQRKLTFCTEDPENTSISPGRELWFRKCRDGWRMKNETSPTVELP

The target of this experiment is Endothelial lipase (EL) (Homo sapiens (Human), UniProt Q9Y5X9). As to the kind of experiment: Endothelial lipase (EL) enzymatic assay with fluorescent substrate A10070 in DMPG vesicles. The experiment is classed as biochemical. The procedure, abridged:
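Vesicles prepared: A10070 dried with DMPG, resuspended in HEPES pH 8.0/NaCl/EDTA, sonicated on ice. Enzyme incubated with compound 30 min at 37° C. Reaction started with 1:10 diluted vesicles. Fluorescence (490/530 nm) followed 60 min; slope from 300–900 secs gives rate.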
The molecule `COCCS(=O)(=O)C(C(=O)NCC(=O)NC1CC1)c1nc2cc(F)c(-c3cccc(NC(=O)OCc4ccccc4)c3)cc2s1` (centres unmarked) [Example 549, benzyl N-{3-[2-({[(cyclopropyl-carbamoyl)methyl]carbamoyl}(2-methoxyethane-sulfonyl)methyl)-5-fluoro-1,3-benzothiazol-6-yl]phenyl} carbamate] registered an IC50 of 4 nM.

With `COCCS(=O)(=O)C(C(=O)NCC(=O)NC1CC1)c1nc2cc(C(F)(F)F)c(-c3ccc(C4CC4)nc3)cc2s1` (centres unmarked) [Example 164, N-[(cyclopropyl-carbamoyl)methyl]-2-[6-(6-cyclopropyl-pyridin-3-yl)-5-(trifluoromethyl)-1,3-benzothiazol-2-yl]-2-(2-methoxyethane-sulfonyl) acetamide], the IC50 was 17 nM.

`CC(C)S(=O)(=O)C(C(=O)NCC(=O)NC1CC1)c1nc2cc(F)c(-c3ccc4c(c3)C(=O)NC4)cc2s1` (centres unmarked) [Example 239, N-[(cyclopropyl-carbamoyl)methyl]-2-[5-fluoro-6-(3-oxo-2,3-dihydro-1H-isoindol-5-yl)-1,3-benzothiazol-2-yl]-2-(propane-2-sulfonyl)acetamide] showed a concentration for half-maximal inhibition (IC50) of 16 nM.

In the case of `CS(=O)(=O)C(C(=O)NCC(=O)NC1CC1)c1nc2cc(F)c(-c3ccc(NC(=O)OCc4ccccc4)nc3)cc2s1` (centres unmarked) [Example 552, benzyl N-{5-[2-({[(cyclopropyl-carbamoyl)methyl]carbamoyl} (methanesulfonyl)methyl)-5-fluoro-1,3-benzothiazol-6-yl]pyridin-2-yl}carbamate], the midpoint of inhibition, the IC50, lay at 1 nM.

`O=C(CNC(=O)C(c1nc2ccc(-c3ccc(F)nc3)cc2s1)S(=O)(=O)c1ccc(F)cc1)NC1CC1` (centres unmarked) [Example 457, N-[(cyclopropyl-carbamoyl)methyl]-2-(4-fluorobenzene-sulfonyl)-2-[6-(6-fluoropyridin-3-yl)-1,3-benzothiazol-2-yl]acetamide]: the IC50 was 24 nM.

`COCCS(=O)(=O)C(C(=O)NCC(=O)NC1CC1)c1nc2cc(C)c(-c3cnc(C)nc3)cc2s1` (centres unmarked) [Example 174, N-[(cyclopropyl-carbamoyl)methyl]-2-(2-methoxyethane-sulfonyl)-2-[5-methyl-6-(2-methylpyrimidin-5-yl)-1,3-benzothiazol-2-yl]acetamide]: the 50% inhibitory concentration (IC50) was 35 nM.

The molecule `O=C(CNC(=O)C(c1nc2ccc(-c3ccc(F)nc3)cc2s1)S(=O)(=O)CCC(F)(F)F)NC1CC1` (centres unmarked) [Example 56, N-[(cyclopropyl-carbamoyl)methyl]-2-[6-(6-fluoropyridin-3-yl)-1,3-benzothiazol-2-yl]-2-(3,3,3-trifluoropropane-sulfonyl)acetamide] displayed an IC50 of 29 nM.

`CC(C)S(=O)(=O)C(C(=O)NCC(=O)NC1CC1)c1nc2cc(-c3ccc(F)nc3)c(F)cc2s1` (centres unmarked) [Example 263, N-[(cyclopropyl-carbamoyl)methyl]-2-[6-fluoro-5-(6-fluoropyridin-3-yl)-1,3-benzothiazol-2-yl]-2-(propane-2-sulfonyl)acetamide] yielded a 50% inhibitory concentration (IC50) of 13 nM.

`Cc1ncc(-c2cc3sc(C(C(=O)NCC(=O)NC4CC4)S(=O)(=O)C(C)C)nc3cc2C)cn1` (centres unmarked) [Example 212, N-[(cyclopropyl-carbamoyl)methyl]-2-[5-methyl-6-(2-methylpyrimidin-5-yl)-1,3-benzothiazol-2-yl]-2-(propane-2-sulfonyl) acetamide] yielded a half-inhibitory concentration (IC50) of 15 nM.

As to `COC(=O)Nc1ccc(-c2cc(Cl)c3nc(C(C(=O)NCC(=O)NC4CC4)S(C)(=O)=O)sc3c2)cc1` (centres unmarked) [Example 125, methyl N-{4-[4-chloro-2-({[(cyclopropyl-carbamoyl)methyl]carbamoyl} (methanesulfonyl)methyl)-1,3-benzothiazol-6-yl]phenyl} carbamate], the midpoint of inhibition, the IC50, lay at 2 nM.

`COCCS(=O)(=O)C(C(=O)NCC(=O)NC1CC1)c1nc2cc(-c3ccncc3)ccc2s1` (centres unmarked) [Example 79, N-[(cyclopropyl-carbamoyl)methyl]-2-(2-methoxyethane-sulfonyl)-2-[5-(pyridin-4-yl)-1,3-benzothiazol-2-yl]acetamide] returned a concentration for half-maximal inhibition (IC50) of 40 nM.

Molecule `O=C(CNC(=O)C(c1nc2ccc(-c3ccc(F)nc3)cc2s1)S(=O)(=O)Cc1ccc(C(F)(F)F)cc1)NC1CC1` (centres unmarked) [Example 512, N-[(cyclopropyl-carbamoyl)methyl]-2-[6-(6-fluoropyridin-3-yl)-1,3-benzothiazol-2-yl]-2-{[4-(trifluoromethyl)phenyl]methanesulfonyl} acetamide] came in with a half-inhibitory concentration (IC50) of 16 nM.

Take `COCCS(=O)(=O)C(C(=O)NCC(=O)NCCOC(C)C)c1nc2cc(-c3ccn(C)c(=O)c3)c(F)cc2s1` (centres unmarked) [Example 353, 2-[6-fluoro-5-(1-methyl-2-oxo-1,2-dihydropyridin-4-yl)-1,3-benzothiazol-2-yl]-2-(2-methoxyethane-sulfonyl)-N-({[2-(propan-2-yloxy)ethyl]carbamoyl}methyl)acetamide]: half-maximal inhibition (IC50) required 34 nM.

`CC(C)S(=O)(=O)C(C(=O)NCC(=O)NC1CC1)c1nc2cc(F)c(-c3ccc(C(=O)Nc4nccs4)cc3)cc2s1` (centres unmarked) [Example 247, 4-[2-({[(cyclopropyl-carbamoyl)methyl]carbamoyl} (propane-2-sulfonyl)methyl)-5-fluoro-1,3-benzothiazol-6-yl]-N-(1,3-thiazol-2-yl) benzamide] came in with a half-maximal inhibitory concentration (IC50) of 11 nM.

For the molecule `CN(C)S(=O)(=O)C(C(=O)NCC(=O)NC1CC1)c1nc2c(F)cc(-c3ccc4[nH]c(=O)ccc4c3)cc2s1` (centres unmarked) [Example 492, N-[(cyclopropyl-carbamoyl)methyl]-2-(dimethyl-sulfamoyl)-2-[4-fluoro-6-(2-oxo-1,2-dihydroquinolin-6-yl)-1,3-benzothiazol-2-yl]acetamide], the concentration for half-maximal inhibition (IC50) stood at 5 nM.

`Cc1ccc(-c2cc3sc(C(C(=O)NCC(=O)NC4CC4)S(=O)(=O)C(C)C)nc3cc2C)cn1` (centres unmarked) [Example 252, N-[(cyclopropyl-carbamoyl)methyl]-2-[5-methyl-6-(6-methylpyridin-3-yl)-1,3-benzothiazol-2-yl]-2-(propane-2-sulfonyl)acetamide] yielded an IC50 of 15 nM.

Turning to `COCCS(=O)(=O)C(C(=O)NCC(=O)NC1CC1)c1nc2cc(F)c(-c3ccc(-c4nnnn4C)cc3)cc2s1` (centres unmarked) [Example 594, N-[(cyclopropyl-carbamoyl)methyl]-2-{5-fluoro-6-[4-(1-methyl-1H-1,2,3,4-tetrazol-5-yl)phenyl]-1,3-benzothiazol-2-yl}-2-(2-methoxyethane-sulfonyl)acetamide], the half-maximal inhibitory concentration (IC50) is 67 nM.

The molecule `CC(C)OC(=O)Nc1ccc(-c2cc3sc(C(C(=O)NCC(=O)NC4CC4)S(=O)(=O)C(C)C)nc3cc2F)cc1` (centres unmarked) [Example 541, propan-2-yl N-{4-[2-({[(cyclopropyl-carbamoyl)methyl]carbamoyl} (propane-2-sulfonyl)methyl)-5-fluoro-1,3-benzothiazol-6-yl]phenyl} carbamate] yielded an IC50 of 2 nM.

For the molecule `CC(C)OC(=O)Nc1ccc(-c2cc3sc(C(C(=O)NCC(=O)NC4CC4)S(=O)(=O)C4CC4)nc3cc2F)cc1` (centres unmarked) [Example 542, propan-2-yl N-(4-{2-[(cyclopropane-sulfonyl) ({[(cyclopropyl-carbamoyl)methyl]carbamoyl})methyl]-5-fluoro-1,3-benzothiazol-6-yl}phenyl) carbamate], it took 2 nM to reach half-maximal inhibition (IC50).

`COCCS(=O)(=O)C(C(=O)NCC(=O)NC1CC1)c1nc2cc(-c3ccc(NC(C)=O)cc3)ccc2s1` (centres unmarked) [Example 106, N-[(cyclopropyl-carbamoyl)methyl]-2-[5-(4-acetamidophenyl)-1,3-benzothiazol-2-yl]-2-(2-methoxyethane-sulfonyl)acetamide] showed an IC50 of 30 nM.
